Where two headings read alike, the source gives them in different places.
Experiments:
[1] = tested on: NMDA-induced excitatory response of red nucleus cells; assay: Red nucleus test (Test B); type: in vivo, Rats; conditions: Rattus norvegicus
Experimental: The purpose of this test is to determine the effects of intravenously administered glycine antagonists on the NMDA-induced excitatory response of red nucleus cells.
The procedure for the red nucleus test is as follows. Rats are anesthetized with chloral hydrate (400 mg/kg ip) and the femoral vein is catheterized for iv drug administration. Five-barrel micropipettes are stereotaxically positioned in the red nucleus. Typically, three to four of the five barrels are filled as follows: the recording barrel with 2M potassium citrate, the current balancing barrel with 4M NaCl, the drug barrel with 25mM NMDA, and another drug barrel with 2.5mM quisqualic acid (QA is only used in selectivity studies). NMDA is iontophoretically applied with an ejection current that is adjusted depending on the sensitivity of each individual red nucleus cell. The NMDA is cycled on and off (usually 30 - 60 sec. on and 60 - 120 sec. off) and the firing rate of the cell during each period is recorded. Once the baseline firing rate of the cell has been established, the test drug is administered iv. The effect of the drug on the NMDA-induced excitatory response of the red nucleus cell can be both qualitatively and quantitatively evaluated from the recordings and the raw data accumulated.

[2] = molecular target: T1, glycine receptor of the NMDA receptor complex (Rattus norvegicus, UniProt P35439); assay: [3H]-glycine binding assay (Test A); set-up: species or system Sprague-Dawley rats; conditions: 20 nanomolar [3H]-glycine, rat synaptic membranes, pH 7.1, 30 minutes at 4 °C
T1 construct: Freshly dissected cortices and hippocampi are homogenized in 0.32 M sucrose; from tissue; host or cells: rat cerebral cortex and hippocampus synaptic membranes
Experimental: In the [^3H]-glycine binding assay, neuronal synaptic membranes are prepared from adult (about 250 g) male Sprague-Dawley rats. Freshly dissected cortices and hippocampi are homogenized in 0.32 M sucrose (110 mg/mL). Synaptosomes are isolated by centrifugation (1000 xg, 10 min), the supernatant is pelleted (20,000 xg, 20 min) and resuspended in double-distilled water. The suspension was centrifuged for 20 minutes at 8,000 xg. The resulting […] and buffy coat are washed twice (48,000 xg, 10 mins, resuspension in double-deionized water). The final pellet is quickly frozen (dry ice/ethanol bath) under double-deionized water and stored at -70 °C.
On the day of the experiment, thawed synaptic membranes are homogenized with a Brinkmann Polytron (tm, Brinkmann Instruments, Westbury, N.Y.) tissue homogenizer in 50 millimolar tris(hydroxymethyl)aminomethane citrate, pH 7.1. The membranes are incubated with 0.04% Sufact-AMPS X100 (tm, Pierce, Rockford, IL) in buffer for 20 minutes at 37 °C and washed six times by centrifugation (48,000 xg, 10 min) and resuspended in buffer. The final pellet is homogenized at 200 mg wet weight/mL of the buffer for the binding assay.
For [^3H]-glycine binding at the N-methyl-D-aspartate receptor, 20 nanomolar [^3H]-glycine (40-60 Ci/mmol, New England Nuclear, Boston, MA) is incubated with the membranes suspended in 50 millimolar tris (hydroxymethyl)aminomethane citrate, pH 7.1 for 30 minutes at 4 °C. Glycine, 1 millimolar, is used to define the nonspecific binding. Bound [^3H]-glycine is isolated from free using a Brandel (Biomedical Research and Development Laboratories, Gaithersburg, MD) cell harvester for vacuum filtration over glass fiber filters (Whatman GF/B from Brandel, Gaithersburg, MD) presoaked in 0.025% polyethylenimine. The samples retained on the glass fiber filters are rinsed 3 times with a total of 2.5 mL ice cold buffer. Radioactivity is estimated by liquid scintillation counting. IC50 values are obtained from a least-squares regression of a logit-log transformation of the data. […]

[3] = tested on: Male SHR rats; assay: Rat Middle Cerebral Artery test (Test C), permanent MCA occlusion; type: in vivo; conditions: 24 hours after MCA/common carotid artery occlusion
Experimental: Male SHR rats weighing 280-320 g are used for these studies. The method used for permanent middle cerebral artery (MCA) occlusion is as described by Brint et al (1988). […] Following occlusions, drugs are administered intravenously via jugular catheter. Twenty-four hours after MCA/common carotid artery occlusion, the animals are sacrificed and their brains quickly removed. Coronal sections of 1 mm thickness are cut using a vibratome and stained with 2,3,5, triphenyl, 2H-tetrazolium chloride (TTC) dye. Following staining, necrotic tissue is readily distinguished from the intact brain and the area of infarcted cortex can be traced on an image analyzer. The infarct volume for each section is quantified with an image analyzer, and the total infarct volume is calculated with a program that summed all interval volume. See S. Brint et al. J. Cerebral Blood Flow 8:474-485 (1988). The statistical analysis of the difference between the volume of ischemic damage in the vehicle control and drug-treated animals is analyzed by student's-t-test. […] For example, the compound of example 145 at an I.V. dose of 10 mgs/kg/hr caused an infarct % volume change of -42% while a 5.0 mg/kg/hr I.V. dosage caused a -8% reduction.

NC1CCN(O)C1=O (racemic) [HA-966]
ED50 ([1]; reference agents, intravenous, anesthetized rats, read-out: ID50 (the source's name)): 7.9 mg/kg

C/C(=C\C(N)C(=O)O)CP(=O)(O)O (centres unmarked) [CGP 37849]
ED50 ([1]; iv, read-out: ID50): 1.7 mg/kg

Cc1ccc(-n2nc(O)c3c(c2=O)Cc2ccc(Cl)cc2N3)cc1 [Example 145, 7-Chloro-4-hydroxy-5,10-dihydro-2-(4'-methylphenyl)pyridazino[4,5-b]-quinoline-1-one]
IC50 [2]: 45 nM
ED50 ([1]; as the meglumine salt (N=5), administered iv, read-out: ID50 (the source's name)): 6.54 mg/kg
infarct % volume change ([3]; 5.0 mg/kg/hr I.V. dosage): -8%
infarct % volume change ([3]; I.V. dose of 10 mgs/kg/hr): -42%

O=c1c2c(c(O)nn1-c1ccccc1)Nc1cc(Cl)ccc1C2 [Example 147, 7-chloro-4-hydroxy-2-phenyl-5,10-dihydro-2H-pyridazino [4,5-b]quinolin-1-one]
IC50 [2]: 17 nM

COc1ccc(-n2nc(O)c3c(c2=O)Cc2ccc(Cl)cc2N3)cc1 [Example 148, 7-chloro-4-hydoxy-2-(4'-methoxyphenyl)-5,10-dihydro-2H-pyridazino[4,5-b]quinoline-1-one]
IC50 [2]: 440 nM

Source: patent EP0790996B1, “PYRIDAZINOQUINOLINE COMPOUNDS” (AstraZeneca AB, priority 1994, dated 1996)
